Measurements published in patent US20230201124A1, “LUBRICANT FOR PHARMACEUTICALS AND NUTRACEUTICALS” (JRS Pharma GmbH & Co. KG, priority 2021, published 2023).

Experiments:
[1] = Tablet hardness versus compression force of lubricated tablets; assay type: physicochemical; settings: for direction of change in tablet hardness: Example 8: lowest level/shortest blend time versus highest level/longest blend time
Protocol: Blends consisting of five separate levels of each lubricant type were prepared, with the lubricant blending time set for up to 60 minutes. After the addition of lubricant to the ibuprofen-MCC premix and the initiation of blending, a portion of each blend (enough to make a representative number of tablets) was withdrawn at each of 5 intervals (5, 15, 30, 45 and 60 minutes). […]
Tablet hardnesses and ejection forces were measure for each variant.

[2] = Lubricant-API stability of 1:1 aspirin-lubricant blends by NIR spectra; assay type: physicochemical; settings: all tested storage conditions, 2 months
Text: Example 9 is a study which examined the lubricant-API stability of rice bran wax, in comparison with magnesium stearate. Aspirin was chosen as a model API for the study. Magnesium stearate is known to interact unfavorably with aspirin. Aspirin also has a known tendency to convert to salicylic acid in the presence of moisture.
Aspirin and lubricant were ground together at a 1:1 ratio by weight with a glass mortar and pestle, then portioned into three vials which were labeled for room temperature (ambient) storage or for storage closed or open in a stability chamber at 40° C. and 75% RH. Near-IR (NIR) spectra were obtained periodically over two months of storage under these three different conditions.
FIG. 22 is an NIR spectra of the study components of Example 9, and provides the following depictions: aspirin (close dash), magnesium stearate (far dash), rice bran wax (solid) and salicylic acid (dotted). Near IR spectra were obtained on a Metrohm 6500 RCA (Rapid Content Analyzer) reflectance NIR (JRS #1219) and a standard normal variate (SNV) pre-processing routine was used to normalize the spectra for comparison.

[3] = Example 8: lowest level/shortest blend time versus highest level/longest blend time (1.0%, 60 min), at each compression force

| Molecule | direction of change in tablet hardness [1] | drop in tablet hardness [1, 3] | tablet hardness ([1]; Example 8: 1% lubricant, 60 minute blend, FIG. 18) | drop in tablet hardness ([1]; Example 8: 15 kN compaction force, 0.125%/5 min versus 1.0%/60 min, FIG. 19) [N] | tablet hardness ([1]; Example 8: highest lubricant level (1.0%), 5 minute blend, FIG. 17) | interaction between lubricant and aspirin [2] |
| --- | --- | --- | --- | --- | --- | --- |
| CCCCCCCCCCCCCCCCCCOC(=O)/C=C/C(=O)[O-].[Na+] [Pruv®, sodium stearyl fumarate] | drop in tablet hardness | < 3 N |  |  |  |  |
| magnesium stearate | drop in tablet hardness | 11-20 N | softest tablets | ~16 | lower tablet hardness values than sodium stearyl fumarate and hydrogenated vegetable oil | interacts with aspirin |
